The values that follow come from ChEMBL document CHEMBL1909046, “DrugMatrix in vitro pharmacology data”.

pIC50, pKi: −log10 of the molar value.

Chain of Matrix metalloproteinase-9 (P14780 whole entry): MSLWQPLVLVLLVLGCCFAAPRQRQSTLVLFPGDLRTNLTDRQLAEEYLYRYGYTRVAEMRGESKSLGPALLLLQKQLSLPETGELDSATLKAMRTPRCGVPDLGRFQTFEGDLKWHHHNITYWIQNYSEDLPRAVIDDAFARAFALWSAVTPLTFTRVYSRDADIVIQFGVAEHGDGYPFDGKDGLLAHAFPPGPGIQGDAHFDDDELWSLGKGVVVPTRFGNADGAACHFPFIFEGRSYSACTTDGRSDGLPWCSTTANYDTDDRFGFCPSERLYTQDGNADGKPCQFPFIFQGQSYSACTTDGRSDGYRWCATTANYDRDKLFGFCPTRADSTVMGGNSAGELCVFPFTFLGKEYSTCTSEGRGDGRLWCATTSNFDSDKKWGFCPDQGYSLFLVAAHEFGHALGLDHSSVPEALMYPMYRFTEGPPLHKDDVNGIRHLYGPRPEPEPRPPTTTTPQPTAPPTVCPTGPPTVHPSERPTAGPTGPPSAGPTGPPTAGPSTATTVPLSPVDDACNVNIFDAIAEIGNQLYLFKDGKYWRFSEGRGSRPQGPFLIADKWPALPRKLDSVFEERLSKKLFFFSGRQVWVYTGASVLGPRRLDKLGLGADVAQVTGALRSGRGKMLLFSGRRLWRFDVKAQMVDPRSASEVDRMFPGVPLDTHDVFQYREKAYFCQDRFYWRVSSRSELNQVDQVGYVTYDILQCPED
Chain of Vascular endothelial growth factor receptor 1 (P17948 whole entry): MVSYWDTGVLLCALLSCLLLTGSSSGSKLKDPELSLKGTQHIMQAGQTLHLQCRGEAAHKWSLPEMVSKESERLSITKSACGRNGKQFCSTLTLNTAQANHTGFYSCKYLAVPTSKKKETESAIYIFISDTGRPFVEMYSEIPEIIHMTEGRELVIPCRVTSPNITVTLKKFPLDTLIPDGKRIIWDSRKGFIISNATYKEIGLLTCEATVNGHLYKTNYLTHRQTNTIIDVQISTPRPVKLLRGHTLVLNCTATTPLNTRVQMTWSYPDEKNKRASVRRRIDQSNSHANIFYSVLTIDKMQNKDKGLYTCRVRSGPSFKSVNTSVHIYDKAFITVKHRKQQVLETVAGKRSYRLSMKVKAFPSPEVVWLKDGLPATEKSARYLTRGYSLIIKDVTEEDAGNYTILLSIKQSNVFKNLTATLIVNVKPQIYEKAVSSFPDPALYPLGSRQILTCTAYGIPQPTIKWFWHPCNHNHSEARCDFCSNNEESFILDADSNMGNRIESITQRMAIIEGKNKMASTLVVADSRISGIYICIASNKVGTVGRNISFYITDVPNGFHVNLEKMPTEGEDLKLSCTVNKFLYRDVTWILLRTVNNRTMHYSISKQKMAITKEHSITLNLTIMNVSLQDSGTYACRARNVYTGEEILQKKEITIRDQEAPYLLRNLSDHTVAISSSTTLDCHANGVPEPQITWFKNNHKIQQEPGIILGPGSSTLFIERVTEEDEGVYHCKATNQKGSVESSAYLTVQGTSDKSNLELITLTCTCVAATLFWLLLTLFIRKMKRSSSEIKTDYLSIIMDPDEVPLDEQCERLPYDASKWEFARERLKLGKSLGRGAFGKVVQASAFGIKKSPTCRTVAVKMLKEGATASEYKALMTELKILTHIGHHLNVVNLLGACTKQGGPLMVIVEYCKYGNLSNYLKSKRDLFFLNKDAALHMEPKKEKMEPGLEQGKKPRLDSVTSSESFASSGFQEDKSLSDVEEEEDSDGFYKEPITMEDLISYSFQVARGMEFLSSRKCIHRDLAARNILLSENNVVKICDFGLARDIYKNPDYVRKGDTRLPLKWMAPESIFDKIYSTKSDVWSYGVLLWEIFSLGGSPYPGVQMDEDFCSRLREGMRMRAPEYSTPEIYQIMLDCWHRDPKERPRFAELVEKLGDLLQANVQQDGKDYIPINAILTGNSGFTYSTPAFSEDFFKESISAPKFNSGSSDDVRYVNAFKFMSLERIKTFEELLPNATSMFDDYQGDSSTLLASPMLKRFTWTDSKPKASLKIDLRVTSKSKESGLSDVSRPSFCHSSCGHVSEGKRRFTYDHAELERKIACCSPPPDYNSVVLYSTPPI
Chain of Kappa-type opioid receptor (P41145 whole entry): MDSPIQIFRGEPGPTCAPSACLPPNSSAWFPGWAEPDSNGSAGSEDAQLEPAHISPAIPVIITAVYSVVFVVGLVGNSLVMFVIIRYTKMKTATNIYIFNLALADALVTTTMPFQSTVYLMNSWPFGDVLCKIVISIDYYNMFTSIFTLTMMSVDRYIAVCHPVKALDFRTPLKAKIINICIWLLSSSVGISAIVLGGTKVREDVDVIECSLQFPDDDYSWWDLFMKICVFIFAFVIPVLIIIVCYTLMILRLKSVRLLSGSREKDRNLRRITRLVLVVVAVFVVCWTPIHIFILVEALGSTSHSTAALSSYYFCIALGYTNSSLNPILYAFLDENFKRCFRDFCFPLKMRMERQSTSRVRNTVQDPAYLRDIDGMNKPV

In the first test the target is 5-hydroxytryptamine receptor 4 (Cavia porcellus, UniProt O70528). Further: in other assays of this panel Not Active means under 50% inhibition at 10 µM.
Chain of 5-hydroxytryptamine receptor 4 (O70528 whole entry): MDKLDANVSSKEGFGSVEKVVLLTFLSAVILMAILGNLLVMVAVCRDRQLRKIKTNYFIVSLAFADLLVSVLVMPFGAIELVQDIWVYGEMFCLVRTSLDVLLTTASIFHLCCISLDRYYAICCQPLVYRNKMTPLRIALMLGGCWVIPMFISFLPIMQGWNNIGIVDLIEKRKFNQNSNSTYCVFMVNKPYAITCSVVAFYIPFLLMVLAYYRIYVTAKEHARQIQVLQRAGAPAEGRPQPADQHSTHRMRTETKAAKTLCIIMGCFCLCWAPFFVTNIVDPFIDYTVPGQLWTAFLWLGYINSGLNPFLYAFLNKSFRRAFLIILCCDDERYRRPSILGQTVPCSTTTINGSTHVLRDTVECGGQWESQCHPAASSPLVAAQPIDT
Experiment: not given
It counts as cell membranes, Dunkin-Hartley, Striatum, Membrane.
Details: not given
As for `NC(=O)N1c2ccccc2CCc2ccccc21`, the IC50 entry is on record as “Not Active”.
On the same count and under the same terms, for `CC(C)C(Br)C(=O)NC(N)=O` (stereo not drawn) [BROMISOVALUM] the value was “Not Active”.
`COc1ccc(C[C@H]2NC[C@H](O)[C@H]2OC(C)=O)cc1` [ANISOMYCIN]: the IC50 entry is given as “Not Active” and the Ki result is “Not Active”.
Regarding `CN(C)CCCN1c2ccccc2Sc2ccc(Cl)cc21` [CHLORPROMAZINE], the IC50 result is on record as “Not Active”.
Regarding LEAD (II) ACETATE, the IC50 entry is “Not Active” and the Ki entry is recorded as “Not Active”.
In the case of CADMIUM ACETATE, the IC50 entry is “Not Active” and the Ki result is reported as “Not Active”.
As to LIPOPOLYSACCHARIDE E. COLI O55:B5, the IC50 result was “Not Active” and the Ki result is reported as “Not Active”.
Regarding `Cc1ccc(/N=C/N(C)/C=N/c2ccc(C)cc2C)c(C)c1` [AMITRAZ], the IC50 entry is reported as “Not Active”.
Regarding `Cc1ccc2cc3c(ccc4ccccc43)c3c2c1CC3` [3-METHYLCHOLANTHRENE], the IC50 result was “Not Active”.
For the compound `CC1=C2C(=CO[C@H](C)[C@H]2C)C(O)=C(C(=O)O)C1=O` [CITRININ], the IC50 result is reported as “Not Active”.

The next test concerns the target Vascular endothelial growth factor receptor 1 (Homo sapiens, UniProt P17948). Further: in other assays of this panel Not Active means under 50% inhibition at 10 µM.
Experiment: not given
Format: cell-based. The conditions noted are these: huvec.
Take `NC(=O)N1c2ccccc2CCc2ccccc21`: the IC50 entry is “Not Active”.
In the case of `CC(C)C(Br)C(=O)NC(N)=O` (stereo not drawn) [BROMISOVALUM], the IC50 entry is listed as “Not Active”.
In the case of `COc1ccc(C[C@H]2NC[C@H](O)[C@H]2OC(C)=O)cc1` [ANISOMYCIN], the IC50 entry was “Not Active” and the Ki entry is listed as “Not Active”.
Consider `CN(C)CCCN1c2ccccc2Sc2ccc(Cl)cc21` [CHLORPROMAZINE], for which the IC50 entry was “Not Active”.
In the case of LEAD (II) ACETATE, the IC50 entry is listed as “Not Active” and the Ki entry is listed as “Not Active”.
Take CADMIUM ACETATE: the IC50 result was “Not Active” and the Ki result is listed as “Not Active”.
With LIPOPOLYSACCHARIDE E. COLI O55:B5, the IC50 entry was “Not Active” and the Ki entry is on record as “Not Active”.
Turning to `Cc1ccc(/N=C/N(C)/C=N/c2ccc(C)cc2C)c(C)c1` [AMITRAZ], the IC50 entry is on record as “Not Active”.
In the case of `Cc1ccc2cc3c(ccc4ccccc43)c3c2c1CC3` [3-METHYLCHOLANTHRENE], the IC50 result is reported as “Not Active”.
On to `CC1=C2C(=CO[C@H](C)[C@H]2C)C(O)=C(C(=O)O)C1=O` [CITRININ], for which the IC50 result is recorded as “Not Active”.

System in the next test: not listed separately
Put plainly: DRUGMATRIX: Glutamate, NMDA, Phencyclidine radioligand binding (ligand: [3H] TCP). Format: cell membranes, Rattus norvegicus, Wistar, Cerebral cortex, Membrane. Particulars: Not Active = under 50% inhibition at 10 µM.
With `NC(=O)N1c2ccccc2CCc2ccccc21`, the IC50 result is reported as “Not Active” and the Ki result is “Not Active”.
Turning to `CC(C)C(Br)C(=O)NC(N)=O` (stereo not drawn) [BROMISOVALUM], the IC50 result was “Not Active” and the Ki entry is listed as “Not Active”.
On to `COc1ccc(C[C@H]2NC[C@H](O)[C@H]2OC(C)=O)cc1` [ANISOMYCIN], for which the IC50 entry was “Not Active” and the Ki entry is on record as “Not Active”.
Consider `CN(C)CCCN1c2ccccc2Sc2ccc(Cl)cc21` [CHLORPROMAZINE], for which the IC50 entry is recorded as “Not Active” and the Ki entry was “Not Active”.
Regarding LEAD (II) ACETATE, the IC50 entry is “Not Active” and the Ki entry was “Not Active”.
In the case of CADMIUM ACETATE, the IC50 entry is given as “Not Active” and the Ki result was “Not Active”.
Regarding LIPOPOLYSACCHARIDE E. COLI O55:B5, the IC50 result is “Not Active” and the Ki entry is listed as “Not Active”.
Consider `Cc1ccc(/N=C/N(C)/C=N/c2ccc(C)cc2C)c(C)c1` [AMITRAZ], for which the IC50 result is reported as “Not Active” and the Ki result is listed as “Not Active”.
As for `Cc1ccc2cc3c(ccc4ccccc43)c3c2c1CC3` [3-METHYLCHOLANTHRENE], the IC50 result is “Not Active” and the Ki entry is on record as “Not Active”.
With `CC1=C2C(=CO[C@H](C)[C@H]2C)C(O)=C(C(=O)O)C1=O` [CITRININ], the IC50 result was “Not Active” and the Ki result is on record as “Not Active”.

System in a further test: not listed separately
Put plainly: DRUGMATRIX: Imidazoline I2, Central radioligand binding (ligand: [3H] Idazoxan). It counts as cell membranes, Rattus norvegicus, Wistar, Cerebral cortex, Membrane. The conditions noted are these: Not Active = under 50% inhibition at 10 µM.
As for `NC(=O)N1c2ccccc2CCc2ccccc21`, the IC50 result is given as “Not Active” and the Ki result was “Not Active”.
`CC(C)C(Br)C(=O)NC(N)=O` (stereo not drawn) [BROMISOVALUM]: the IC50 entry is “Not Active” and the Ki result is recorded as “Not Active”.
`COc1ccc(C[C@H]2NC[C@H](O)[C@H]2OC(C)=O)cc1` [ANISOMYCIN]: the IC50 entry is recorded as “Not Active” and the Ki entry was “Not Active”.
With LEAD (II) ACETATE, the IC50 result is “Not Active” and the Ki entry is reported as “Not Active”.
On to CADMIUM ACETATE, for which the IC50 entry is listed as “Not Active” and the Ki result is “Not Active”.
On to LIPOPOLYSACCHARIDE E. COLI O55:B5, for which the IC50 entry is “Not Active” and the Ki entry is “Not Active”.
Take `Cc1ccc2cc3c(ccc4ccccc43)c3c2c1CC3` [3-METHYLCHOLANTHRENE]: the IC50 result is recorded as “Not Active” and the Ki entry is “Not Active”.
Take `CC1=C2C(=CO[C@H](C)[C@H]2C)C(O)=C(C(=O)O)C1=O` [CITRININ]: the IC50 result is “Not Active” and the Ki result is on record as “Not Active”.

Staying with this test, now noted: Not Active = under 50% inhibition at 10 µM; read-out: IC50.
As usually defined, the pIC50 is the negative decadic logarithm of the IC50, by convention in mol/L. Regarding `CN(C)CCCN1c2ccccc2Sc2ccc(Cl)cc21` [CHLORPROMAZINE], the pIC50 is 5.57.
Consider `Cc1ccc(/N=C/N(C)/C=N/c2ccc(C)cc2C)c(C)c1` [AMITRAZ], for which the pIC50 is 7.32.

The same test, now with this note: Not Active = under 50% inhibition at 10 µM; read-out: Ki.
For orientation: pKi means the negative decadic logarithm of the Ki, by convention in mol/L. Take `CN(C)CCCN1c2ccccc2Sc2ccc(Cl)cc21` [CHLORPROMAZINE]: the pKi is 5.75.
Regarding `Cc1ccc(/N=C/N(C)/C=N/c2ccc(C)cc2C)c(C)c1` [AMITRAZ], the pKi is 7.50.

Another test concerns the target Kappa-type opioid receptor (Homo sapiens, UniProt P41145). Briefly: DRUGMATRIX: Opiate kappa (OP2, KOP) radioligand binding (ligand: [3H] Diprenorphine). Format: cell membranes, HEK293, Membrane. The conditions noted are these: hek293; Not Active = under 50% inhibition at 10 µM.
As for `NC(=O)N1c2ccccc2CCc2ccccc21`, the IC50 result was “Not Active”.
As to `CC(C)C(Br)C(=O)NC(N)=O` (stereo not drawn) [BROMISOVALUM], the IC50 entry is reported as “Not Active”.

The next test has as its target T1, Interstitial collagenase (Homo sapiens, UniProt P03956).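 Further: MMP-1 enzyme inhibition assay using a peptide substrate; in other assays of this panel Not Active means under 50% inhibition at 10 µM.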
T1 sequence (P03956 whole entry): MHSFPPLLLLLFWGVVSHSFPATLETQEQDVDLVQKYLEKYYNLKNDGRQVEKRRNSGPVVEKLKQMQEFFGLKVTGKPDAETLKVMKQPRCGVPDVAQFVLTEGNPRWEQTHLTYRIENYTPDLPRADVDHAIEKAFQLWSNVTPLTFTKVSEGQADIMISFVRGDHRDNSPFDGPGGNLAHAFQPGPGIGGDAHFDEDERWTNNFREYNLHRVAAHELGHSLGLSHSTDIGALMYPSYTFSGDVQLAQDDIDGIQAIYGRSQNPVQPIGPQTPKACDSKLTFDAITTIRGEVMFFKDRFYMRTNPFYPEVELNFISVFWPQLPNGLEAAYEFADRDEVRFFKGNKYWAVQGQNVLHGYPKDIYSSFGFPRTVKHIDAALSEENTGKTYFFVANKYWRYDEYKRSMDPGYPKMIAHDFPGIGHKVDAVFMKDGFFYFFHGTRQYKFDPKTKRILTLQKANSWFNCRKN
Briefly: biochemical. Format: tissue-based, Rheumatoid synovial fibroblasts.
Details: not given
As for `NC(=O)N1c2ccccc2CCc2ccccc21`, the IC50 result is “Not Active”.
Turning to `CC(C)C(Br)C(=O)NC(N)=O` (stereo not drawn) [BROMISOVALUM], the IC50 entry is reported as “Not Active”.
For `COc1ccc(C[C@H]2NC[C@H](O)[C@H]2OC(C)=O)cc1` [ANISOMYCIN], the IC50 entry is on record as “Not Active” and the Ki entry is “Not Active”.
Regarding `CN(C)CCCN1c2ccccc2Sc2ccc(Cl)cc21` [CHLORPROMAZINE], the IC50 result is given as “Not Active”.
For LEAD (II) ACETATE, the IC50 entry is reported as “Not Active” and the Ki entry is recorded as “Not Active”.
Regarding CADMIUM ACETATE, the IC50 entry is on record as “Not Active” and the Ki result is “Not Active”.
LIPOPOLYSACCHARIDE E. COLI O55:B5: the IC50 entry is “Not Active” and the Ki result is reported as “Not Active”.
Consider `Cc1ccc(/N=C/N(C)/C=N/c2ccc(C)cc2C)c(C)c1` [AMITRAZ], for which the IC50 result is reported as “Not Active”.
In the case of `Cc1ccc2cc3c(ccc4ccccc43)c3c2c1CC3` [3-METHYLCHOLANTHRENE], the IC50 entry is listed as “Not Active”.
Consider `CC1=C2C(=CO[C@H](C)[C@H]2C)C(O)=C(C(=O)O)C1=O` [CITRININ], for which the IC50 result is given as “Not Active”.

A further test addresses Matrix metalloproteinase-9 (Homo sapiens, UniProt P14780). Put plainly: biochemical. Format: cell-based.
Details: not given
`NC(=O)N1c2ccccc2CCc2ccccc21`: the IC50 result is recorded as “Not Active”.
The same measure, in the same setting: as for `CC(C)C(Br)C(=O)NC(N)=O` (stereo not drawn) [BROMISOVALUM], the entry is “Not Active”.
Consider `COc1ccc(C[C@H]2NC[C@H](O)[C@H]2OC(C)=O)cc1` [ANISOMYCIN], for which the IC50 entry is reported as “Not Active” and the Ki entry is recorded as “Not Active”.
`CN(C)CCCN1c2ccccc2Sc2ccc(Cl)cc21` [CHLORPROMAZINE]: the IC50 result is “Not Active”.
Regarding LEAD (II) ACETATE, the IC50 entry is recorded as “Not Active” and the Ki result is on record as “Not Active”.
Regarding CADMIUM ACETATE, the IC50 result is listed as “Not Active” and the Ki entry was “Not Active”.
On to LIPOPOLYSACCHARIDE E. COLI O55:B5, for which the IC50 entry is “Not Active” and the Ki entry was “Not Active”.
As for `Cc1ccc(/N=C/N(C)/C=N/c2ccc(C)cc2C)c(C)c1` [AMITRAZ], the IC50 result was “Not Active”.
For `Cc1ccc2cc3c(ccc4ccccc43)c3c2c1CC3` [3-METHYLCHOLANTHRENE], the IC50 entry was “Not Active”.
With `CC1=C2C(=CO[C@H](C)[C@H]2C)C(O)=C(C(=O)O)C1=O` [CITRININ], the IC50 entry is reported as “Not Active”.
